Data: patent publication US20250262201A1, “COMPOUNDS AND METHODS USEFUL FOR STABILIZING PHENYLALANINE HYDROXYLASE MUTATIONS” (Agios Pharmaceuticals, Inc., priority 2022, published 2025)

Molecular target: T1, human PAH with the R408W mutation (Homo sapiens, UniProt P00439, R408W)
T1 construct: expressed in transfected cells
T1 sequence (P00439 1-452 R408W): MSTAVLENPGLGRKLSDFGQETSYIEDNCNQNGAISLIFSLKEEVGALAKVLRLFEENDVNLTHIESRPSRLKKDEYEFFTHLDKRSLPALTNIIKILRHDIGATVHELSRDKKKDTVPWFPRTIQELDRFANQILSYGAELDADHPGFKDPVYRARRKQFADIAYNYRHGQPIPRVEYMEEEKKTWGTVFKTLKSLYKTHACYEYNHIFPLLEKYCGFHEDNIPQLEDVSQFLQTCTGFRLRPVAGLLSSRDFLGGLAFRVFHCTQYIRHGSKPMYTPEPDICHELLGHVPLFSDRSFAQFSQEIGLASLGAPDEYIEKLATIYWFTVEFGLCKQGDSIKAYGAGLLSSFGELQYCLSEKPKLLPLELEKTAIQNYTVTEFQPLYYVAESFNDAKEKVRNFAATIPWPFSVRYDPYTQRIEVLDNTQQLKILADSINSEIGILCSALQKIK
Experiment: Cell Based Phenylalanine Flux Assay
Design: scale not given here
Details: A375 R408W cells, 24 hrs with compound, then 20 μM sepiapterin and 800 μM 13C9,15N-Phenylalanine for 4 hours; 13C-Tyrosine by LC-MS; average where tested multiple times

Row | AC50 | Compound
1 | E, E | O=C(c1oc(N2CCOCC2)nc1C(F)F)N1CCc2[nH]cnc2C1c1ncc2ccccc2n1 (stereo not drawn)
2 | E, E | Cc1nc(C(=O)N2CCc3[nH]cnc3C2c2ncc3ccccc3n2)n(C)n1 (stereo not drawn)

Same assay, conditions: A375 R408W cells, 24 hrs with compound, then 20 μM sepiapterin and 800 μM 13C9,15N-Phenylalanine for 4 hours; 13C-Tyrosine by LC-MS; average where tested multiple times; read-out: AC50

Row | Compound | AC50 [nM]
3 | O=C(Cc1nc(C(F)(F)F)cs1)N1CCc2[nH]cnc2C1c1cn2ccccc2n1 (stereo not drawn) | 1000 to 5000
4 | Cc1ncoc1C(=O)N1CC2(CC2)c2[nH]cnc2C1c1ccc2ccccc2n1 (stereo not drawn) | 1000 to 5000
5 | CC(C)(F)c1ccc2c(C(=O)N3CCc4[nH]cnc4C3c3ccc4ccccc4n3)cnn2c1 (stereo not drawn) | > 5000
6 | COCCNc1nnc(C(=O)N2C[C@@H](C)c3[nH]cnc3[C@H]2c2cc3ccccc3cn2)o1 (single isomer, unassigned) | > 5000
7 | O=C(c1nsc2ccccc12)N1CCc2[nH]cnc2C1c1ccc2ccccc2n1 (stereo not drawn) | > 5000

The remaining lines, values ahead:

Row | AC50 [nM] | Compound
8 | > 5000 | O=C(Cc1cnco1)N1CCc2[nH]cnc2C1c1cn2ccccc2n1 (stereo not drawn)
9 | 1000 to 5000 | Cc1nnc(C(=O)N2CC(C)(C)c3[nH]cnc3C2c2cc3ccccc3cn2)o1 (stereo not drawn)
10 | > 5000 | COCc1ncc(C(=O)N2CCc3[nH]cnc3C2c2cn3ccccc3n2)o1 (stereo not drawn)
11 | 1000 to 5000 | O=C(c1nnc(C2CC2)o1)N1CCc2[nH]cnc2C1c1cn2ccccc2n1 (stereo not drawn)
12 | > 5000 | Cc1nc(N2CCOCC2)oc1C(=O)N1CCc2[nH]cnc2C1c1ccc2ccccc2n1 (stereo not drawn)
13 | 1000 to 5000 | Cc1nc(-c2ccccn2)oc1C(=O)N1CCc2[nH]cnc2C1c1cn2ccccc2n1 (stereo not drawn)
14 | > 5000 | O=C(c1nnc(N2CCC(F)CC2)o1)N1CCc2[nH]cnc2C1c1ccc2ccccc2n1 (stereo not drawn)
15 | 1000 to 5000 | O=C(c1cnc(C(F)(F)F)s1)N1CCc2[nH]cnc2C1c1cn2ccccc2n1 (stereo not drawn)

Same assay, conditions: A375 cells expressing human R408W PAH; 24 hrs compound incubation; 13C-Tyrosine by LC-MS; average where tested multiple times; read-out: AC50

Row | Compound | AC50 [nM]
16 | O=C(c1nnc(-c2ccn(C(F)F)n2)o1)N1CCc2[nH]cnc2[C@@H]1c1ncc2ccccc2n1 [Example 190, (R)-(5-(1-(difluoromethyl)-1H-pyrazol-3-yl)-1,3,4-oxadiazol-2-yl)(4-(quinazolin-2-yl)-6,7-dihydro-1H-imidazo[4,5-c]pyridin-5(4H)-yl)methanone] | 1000 to 5000
17 | (R)-(5-(1-methyl-1H-imidazol-4-yl)-1,3-oxadiazol-2- yl)(4-(quinazolin-2-yl)-6,7-dihydro-1H-imidazo[4,5- c]pyridin-5(4H)-yl)methanone [Example 198] | > 5000
18 | O=C(CC1(O)CCC1)N1CCc2[nH]cnc2C1c1ccc2ccccc2n1 (stereo in doubt) [Example 60, (S)-2-(1-hydroxycyclobutyl)-1-(4-(quinolin-2-yl)-6,7-dihydro-1H-imidazo[4,5-c]pyridin-5(4H)-yl)ethanone] | 1000 to 5000
19 | Cc1ccc(-c2nnc(C(=O)N3CCc4[nH]cnc4[C@H]3c3cc4ccccc4cn3)o2)nc1 [Example 439, (R)-(4-(isoquinolin-3-yl)-6,7-dihydro-1H-imidazo[4,5-c]pyridin-5(4H)-yl)(5-(5-methylpyridin-2-yl)-1,3,4-oxadiazol-2-yl)methanone] | < 500
20 | CN1CCN(c2ccc3c(C(=O)N4CCc5[nH]cnc5[C@H]4c4cc5ccccc5cn4)cnn3c2)CC1 [Example 457, (R)-(4-(isoquinolin-3-yl)-6,7-dihydro-1H-imidazo[4,5-c]pyridin-5(4H)-yl)(6-(4-methylpiperazin-1-yl)pyrazolo[1,5-a]pyridin-3-yl)methanone] | < 500
21 | Cc1nn(C)cc1-c1nnc(C(=O)N2CCc3[nH]cnc3[C@@H]2c2ncc3ccccc3n2)o1 [Example 199, (R)-(5-(1,3-dimethyl-1H-pyrazol-4-yl)-1,3,4-oxadiazol-2-yl)(4-(quinazolin-2-yl)-6,7-dihydro-1H-imidazo[4,5-c]pyridin-5(4H)-yl)methanone] | > 5000
22 | CC(C)(O)c1nc(C(F)F)c(C(=O)N2CCc3[nH]cnc3C2c2ccc3ccccc3n2)o1 (stereo in doubt) [Example 91, (R)-(4-(difluoromethyl)-2-(2-hydroxypropan-2-yl)oxazol-5-yl)(4-(quinolin-2-yl)-6,7-dihydro-1H-imidazo[4,5-c]pyridin-5(4H)-yl)methanone] | < 500
23 | O=C([C@@H]1CC1(F)F)N1CCc2[nH]cnc2C1c1ccc2ccccc2n1 (stereo in doubt) [Example 50, ((S)-2,2-difluorocyclopropyl)((S)-4-(quinolin-2-yl)-6,7-dihydro-1H-imidazo[4,5-c]pyridin-5(4H)-yl)methanone] | > 5000
24 | O=C(c1nnc(-c2ccc(F)cc2)o1)N1CCc2[nH]cnc2C1c1ccc2ccccc2n1 (stereo in doubt) [Example 11, (R)-(5-(4-fluorophenyl)-1,3,4-oxadiazol-2-yl)(4-(quinolin-2-yl)-6,7-dihydro-1H-imidazo[4,5-c]pyridin-5(4H)-yl)methanone] | < 500
25 | O=C(c1nnc(-c2ccccn2)o1)N1CCc2[nH]cnc2[C@@H]1c1ncc2ccccc2n1 [Example 146, (R)-(5-(pyridin-2-yl)-1,3,4-oxadiazol-2-yl)(4-(quinazolin-2-yl)-6,7-dihydro-1H-imidazo[4,5-c]pyridin-5(4H)-yl)methanone] | 1000 to 5000
26 | Cc1ncoc1C(=O)N1CCc2[nH]cnc2[C@H]1c1cn2ccccc2n1 [Example 228, (R)-(4-(imidazo[1,2-a]pyridin-2-yl)-6,7-dihydro-1H-imidazo[4,5-c]pyridin-5(4H)-yl)(4-methyloxazol-5-yl)methanone] | 1000 to 5000
27 | O=C(c1cnn2cc(Cl)ccc12)N1CCc2[nH]cnc2[C@H]1c1cc2ccccc2cn1 [Example 467, (R)-(6-chloropyrazolo[1,5-a]pyridin-3-yl)(4-(isoquinolin-3-yl)-6,7-dihydro-1H-imidazo[4,5-c]pyridin-5(4H)-yl)methanone] | < 500
28 | O=C(c1ocnc1C1CC1)N1CCc2[nH]cnc2[C@@H]1c1cn2ccccc2n1 [Example 243, (S)-(4-cyclopropyloxazol-5-yl)(4-(imidazo[1,2-a]pyridin-2-yl)-6,7-dihydro-1H-imidazo[4,5-c]pyridin-5(4H)-yl)methanone] | 1000 to 5000
29 | Cn1nc(C(F)F)nc1C(=O)N1CCc2[nH]cnc2[C@H]1c1ncc2ccccc2n1 [Example 276, (S)-(3-(difluoromethyl)-1-methyl-1H-1,2,4-triazol-5-yl)(4-(quinazolin-2-yl)-6,7-dihydro-1H-imidazo[4,5-c]pyridin-5(4H)-yl)methanone] | < 500

The next lines start with the values.

Row | AC50 [nM] | Compound
30 | < 500 | O=C(c1cnco1)N1CCc2[nH]cnc2[C@H]1c1cc2ccccc2cn1 [Example 320, (R)-(4-(isoquinolin-3-yl)-6,7-dihydro-1H-imidazo[4,5-c]pyridin-5(4H)-yl)(oxazol-5-yl)methanone]
31 | 1000 to 5000 | Cn1nccc1C(=O)N1CCc2[nH]cnc2C1c1ccc2ccccc2n1 (stereo in doubt) [Example 94, (S)-(1-methyl-1H-pyrazol-5-yl)(4-(quinolin-2-yl)-6,7-dihydro-1H-imidazo[4,5-c]pyridin-5(4H)-yl)methanone]
32 | 500 to 1000 | C[C@H]1CN(C(=O)c2nnc(-c3ccccn3)o2)[C@H](c2cc3ccccc3cn2)c2nc[nH]c21 (single isomer, unassigned) [Example 385]
33 | 500 to 1000 | CC(C)(O)c1ncc(C(=O)N2CCc3[nH]cnc3[C@H]2c2cc3ccccc3cn2)s1 [Example 328, (R)-(2-(2-hydroxypropan-2-yl)thiazol-5-yl)(4-(isoquinolin-3-yl)-6,7-dihydro-1H-imidazo[4,5-c]pyridin-5(4H)-yl)methanone]
34 | 500 to 1000 | O=C(c1cnc(-c2ccccn2)o1)N1CCc2[nH]cnc2C1c1ccc2ccccc2n1 (stereo in doubt) [Example 61, (R)-(2-(pyridin-2-yl)oxazol-5-yl)(4-(quinolin-2-yl)-6,7-dihydro-1H-imidazo[4,5-c]pyridin-5(4H)-yl)methanone]
35 | 1000 to 5000 | O=C(c1ocnc1C(F)F)N1CCc2nc[nH]c2C1c1ccc2ccccc2n1 (stereo in doubt) [Example 52, (S)-(4-(difluoromethyl)oxazol-5-yl)(4-(quinolin-2-yl)-6,7-dihydro-3H-imidazo[4,5-c]pyridin-5(4H)-yl)methanone]
36 | < 500 | Cn1nc(C(F)F)nc1C(=O)N1CCc2[nH]cnc2[C@H]1c1cc2ccccc2cn1 [Example 423, (R)-(3-(difluoromethyl)-1-methyl-1H-1,2,4-triazol-5-yl)(4-(isoquinolin-3-yl)-6,7-dihydro-1H-imidazo[4,5-c]pyridin-5(4H)-yl)methanone]
37 | 1000 to 5000 | O=C(c1nnc(-c2ccc(F)cn2)o1)N1CCc2[nH]cnc2C1c1ccc2ccccc2n1 (stereo in doubt) [Example 33, (R)-(5-(5-fluoropyridin-2-yl)-1,3,4-oxadiazol-2-yl)(4-(quinolin-2-yl)-6,7-dihydro-1H-imidazo[4,5-c]pyridin-5(4H)-yl)methanone]
38 | 500 to 1000 | CC(C)(O)c1nc(C(=O)N2CCc3[nH]cnc3[C@H]2c2cc3ccccc3cn2)no1 [Example 421, (R)-(5-(2-hydroxypropan-2-yl)-1,2,4-oxadiazol-3-yl)(4-(isoquinolin-3-yl)-6,7-dihydro-1H-imidazo[4,5-c]pyridin-5(4H)-yl)methanone]
39 | 1000 to 5000 | CC(C)(F)c1nnc(C(=O)N2CCc3[nH]cnc3C2c2ccc3ccccc3n2)o1 (stereo in doubt) [Example 106, (S)-(5-(2-fluoropropan-2-yl)-1,3,4-oxadiazol-2-yl)(4-(quinolin-2-yl)-6,7-dihydro-1H-imidazo[4,5-c]pyridin-5(4H)-yl)methanone]
